Experimental data published in patent US8883798B2, “Pyrimidine compounds inhibiting the formation of nitric oxide and prostaglandin E2, method of production thereof and use thereof” (Ustav Organicke Chemie a Biochemie Akademie Ved CR, V.V.I., priority 2011, dated 2014).

Legend:
[1] = system: production of nitric oxide (NO); test: Production of nitric oxide (NO) in cultures of mouse peritoneal cells stimulated with IFN-γ plus LPS (Griess reagent); type: cell-based, mice; details: substance 50 μmol·l^−1, IFN-g plus LPS, 24 h
Description: (§1) Under in vitro conditions, the effect of the pyrimidine compounds according to this invention was tested in terms of the production of nitric oxide (NO) and in terms of the production of prostaglandin E2 (PGE2) in cultures of the peritoneal cells of mice.
NO is a product of the metabolism of L-arginine, quickly changes to […], which are then measured using the Griess reagent system. Under normal conditions, the production of NO is practically zero. It only occurs after some stimulation. In these experiments, interferon-gamma (IFN-γ) and bacterial lipopolysacharide (LPS) were used as stimulators. The values of NO induced in this way fluctuated in the individual experiments in a range from 52 to 89 μmol·l^−1; for the purposes of comparison between the experiments they were considered as 100%. The production of NO after the application of the substances was expressed in percentage with respect to the control values. (The lower the value, the higher the inhibition effect of the substances on NO production.) IC50 are the concentrations of the substances reducing the production of NO by 50% with respect to the controls.
(§2) Experiments were performed on mice peritoneal cells C57BL/6 (Charles River, Germany—AnLabu).
(§3) NO production was induced using IFN-g (5000 pg/mL) plus LPS (100 pg/mL); evaluated (Griess reagent) after 24 h of the cell cultivation (2×10^6/mL). PGE2 was induced using LPS (10 ng/mL); evaluated (ELISA) following 6 h cultivation of cells (3×10^6/mL). Cell longevity was evaluated using WST-1 (tetrazolium salt), following 24 h cultivation of cells (1×10^6/mL). The values mentioned in the table represent the effects of the substances tested in a concentration of 50 μmol·l^−1.

[2] = system: production of prostaglandin E2 (PGE2); test: Production of prostaglandin E2 (PGE2) in cultures of mouse peritoneal cells stimulated with LPS (ELISA kit); type: cell-based, mice; details: for Production of prostaglandins in % of the controls: Table 3A, substance 50 μmol·l^−1, 6 h; for Production of prostaglandins IC50 (μmol · 1^−1) average value and range of values: Table 3B, 6 h
Description: as §1
The influence on the production of prostaglandin E2 (PGE2) in vitro caused by the activity of the pyrimidine compounds according to the submitted invention was determined in cultures of the peritoneal cells of mice using a commercial kit (R&DSystems). The concentrations of PGE2 after lipopolysacharide (LPS) stimulation reached in the individual experiments values in a range of 22 to 91 ng·ml^−1 and for the purposes of comparison between the experiments were considered as 100%. The influence of the substances on the production of PGE2 was evaluated in percentage with respect to the control values.
as §2, §3

peritoneal cells of mice = test: Cell viability of mouse peritoneal cells (WST-1 kit); type: cell-based; details: substance 50 μmol·l^−1, 24 h; for Cell viability in % of the controls: Table 3A; for Cell viabilities in % of the controls: Table 3B
Description: Cell viability was determined in the standard way using a WST-1 kit (Roche). The values of the viability of the control cells were for the purposes of comparison between experiments considered as 100%. The influence of the substances on the longevity of the cells was evaluated in percentage with respect to the control values.
as §2, §3

SMILES | Production of nitric oxide in % of the controls ([1]; Table 3A) | Production of prostaglandins in % of the controls [2] | Cell viability in % of the controls (peritoneal cells of mice) | Production of nitric oxide in % of the controls ([1]; Table 3B) | Production of prostaglandins IC50 (μmol · 1^−1) average value and range of values [2] | Cell viabilities in % of the controls (peritoneal cells of mice)
O=CNc1nc(Cl)c(-c2ccccc2)c(Cl)n1 [Substance 56] | 0.80 ± 0.37 % of the controls | 46.40 ± 0.28 % of the controls | 48.49 ± 4.44 % of the controls |  |  | 
CCCCc1c(-c2ccncc2)nc(N)nc1-c1ccco1 [Substance 98] |  |  |  | 54.42 ± 2.64; n = 6 % of the controls | 62.49 ± 11.98; n = 4 μmol · 1^−1 | 69.84 ± 3.62; n = 8 % of the controls
CCCCc1c(-c2ccc(F)cc2)nc(N)nc1-c1ccc(F)cc1 [Substance 70] |  |  |  | 87.03 ± 3.75; n = 4 % of the controls | 51.70 ± 13.80; n = 2 μmol · 1^−1 | 108.03 ± 9.80; n = 4 % of the controls
CCCCc1c(Cl)nc(S)nc1Cl [Substance 149] |  |  |  | 24.12 ± 11.22; n = 6 % of the controls | 26.35 ± 10.89; n = 4 μmol · 1^−1 | 99.14 ± 6.73; n = 8 % of the controls
CCCCc1c(Cl)nc(N)nc1-c1ccoc1 [Substance 106] |  |  |  | 54.83 ± 2.82; n = 4 % of the controls | 22.10 ± 3.44; n = 4 μmol · 1^−1 | 100.38 ± 5.55; n = 8 % of the controls
CCCCc1c(-c2ccco2)nc(N)nc1-c1cccc2ccccc12 [Substance 138] |  |  |  | 42.92 ± 3.77; n = 4 % of the controls | 43.57 ± 4.53; n = 2 μmol · 1^−1 | 93.61 ± 5.46; n = 4 % of the controls
CCCCc1c(-c2ccco2)nc(N)nc1-c1cccs1 [Substance 99] |  |  |  | 31.27 ± 2.12; n = 4 % of the controls | 13.25 ± 6.33; n = 4 μmol · 1^−1 | 55.22 ± 5.10; n = 4 % of the controls
CCCCc1c(-c2ccsc2)nc(N)nc1-c1cccs1 [Substance 111] |  |  |  | 57.52 ± 1.81; n = 4 % of the controls | 56.94 ± 12.51; n = 6 μmol · 1^−1 | 105.47 ± 5.51; n = 8 % of the controls
CCCCc1c(-c2cccnc2)nc(N)nc1-c1ccco1 [Substance 97] |  |  |  | 37.05 ± 6.68; n = 6 % of the controls | 48.18 ± 19.94; n = 4 μmol · 1^−1 | 45.54 ± 4.96; n = 8 % of the controls
CCCCc1c(-c2ccco2)nc(N)nc1-c1cc2ccccc2s1 [Substance 131] |  |  |  | 49.76 ± 4.85; n = 4 % of the controls | 83.56 ± 5.83; n = 4 μmol · 1^−1 | 98.88 ± 1.65; n = 8 % of the controls
CCCCc1c(Cl)nc(NCc2ccccc2)nc1Cl [Substance 145] |  |  |  | 93.01 ± 9.25; n = 6 % of the controls | 0.28 ± 0.23; n = 4 μmol · 1^−1 | 147.31 ± 4.88; n = 8 % of the controls
CCCCc1c(-c2ccc(OC)cc2)nc(N)nc1-c1cccnc1 [Substance 80] |  |  |  | 35.18 ± 4.39; n = 4 % of the controls | 41.84 ± 7.54; n = 2 μmol · 1^−1 | 103.13 ± 4.24; n = 8 % of the controls
CCCCc1c(Cl)nc(NCc2ccco2)nc1Cl [Substance 144] |  |  |  | 83.33 ± 11.72; n = 6 % of the controls | 0.20 ± 0.33; n = 4 μmol · 1^−1 | 150.27 ± 4.96; n = 8 % of the controls
O=CNc1nc(Cl)c(Cc2ccccc2)c(Cl)n1 [Substance 59] | 0.15 ± 0.01 % of the controls | 3.84 ± 0.11 % of the controls | 58.75 ± 5.34 % of the controls |  |  | 
CCCCc1c(-c2cc3ccccc3o2)nc(N)nc1-c1cccs1 [Substance 121] |  |  |  | 55.17 ± 7.88; n = 10 % of the controls | 62.54 ± 21.79; n = 6 μmol · 1^−1 | 90.22 ± 7.99; n = 12 % of the controls
CCCCc1c(-c2cccc3ccccc23)nc(N)nc1-c1cccc2ccccc12 [Substance 141] |  |  |  | 57.66 ± 6.53; n = 6 % of the controls | 34.2 ± 8.01; n = 4 μmol · 1^−1 | 107.73 ± 5.36; n = 8 % of the controls
CCCCc1c(-c2ccncc2)nc(N)nc1-c1cc2ccccc2o1 [Substance 120] |  |  |  | 65.32 ± 3.72; n = 4 % of the controls | 83.44 ± 11.03; n = 2 μmol · 1^−1 | 92.51 ± 2.77; n = 4 % of the controls
CCCCc1c(-c2ccccn2)nc(N)nc1-c1cccs1 [Substance 89] |  |  |  | 19.62 ± 4.08; n = 6 % of the controls | 92.30 ± 9.20; n = 4 μmol · 1^−1 | 104.15 ± 10.36; n = 8 % of the controls
CCCCc1c(Cl)nc(N)nc1-c1ccsc1 [Substance 115] |  |  |  | 37.43 ± 8.29; n = 6 % of the controls | 22.90 ± 11.94; n = 4 μmol · 1^−1 | 107.17 ± 2.03; n = 8 % of the controls
CCC(C)c1c(Cl)nc(NC=O)nc1Cl (stereo not drawn) [Substance 54] | 0.17 ± 0.17 % of the controls | 30.48 ± 1.79 % of the controls | 77.51 ± 14.73 % of the controls |  |  | 
CCCCc1c(-c2ccsc2)nc(N)nc1-c1ccco1 [Substance 112] |  |  |  | 47.96 ± 4.90; n = 6 % of the controls | 55.24 ± 7.98; n = 4 μmol · 1^−1 | 92.77 ± 7.75; n = 12 % of the controls
CCCCc1c(-c2ccsc2)nc(N)nc1-c1ccsc1 [Substance 114] |  |  |  | 70.51 ± 5.78; n = 4 % of the controls | 37.00 ± 16.33; n = 4 μmol · 1^−1 | 118.67 ± 2.26; n = 8 % of the controls
CCCc1c(Cl)nc(N)nc1Cl [Substance 27] | 46.98 ± 10.25 % of the controls | 31.73 ± 4.35 % of the controls | 87.86 ± 9.18 % of the controls |  |  | 
CCCCc1c(-c2cccnc2)nc(N)nc1-c1cccs1 [Substance 90] |  |  |  | 50.11 ± 3.95; n = 4 % of the controls | 31.93 ± 15.87; n = 4 μmol · 1^−1 | 69.80 ± 6.79; n = 4 % of the controls
